Experimental findings from patent US5322846A, “4-methylthiazole derivatives, their methods of preparation and the pharmaceutical compositions in which they are present” (Institut de Recherches Chimiques et Biologiques Appliquees …, priority 1990, dated 1994) are described below.

Structures can show the parent of a compound that is named as a salt. Where two headings read alike, the source gives them in different places. Where only a bound is given, the exact number is not on record here.

In general, LD50 refers to the dose expected to kill half of the subjects tested.

For data set [1], the system named is lethal effect of norepinephrine. Nature of the data set: Adrenolytic activity in vivo on the lethal effect of norepinephrine in rats. Conditions: for ED50: Rattus norvegicus, wake male rats, norepinephrine 0.4 mg.kg^-1 intravenous, prior administration of product, read-out: ED50 (dose which protects 50% of the animals); for adrenolytic activity in the whole animals: rats, in words. How it is done: The intravenous injection of norepinephrine (0.4 mg.kg^-1) into wake male rats causes the death of 100% of the animals. The prior administration of a substance which has an alpha-blocking property makes it possible to reduce this toxicity.
The results are expressed in the form of the 50% effective dose (ED50), i.e. the dose in mg.kg^-1 which protects 50% of the animals (Table 5).

The nature of data set [2]: Acute toxicity in mice (oral, LD50). Conditions: mouse, in vivo, male mice, single dose, 14-day observation. Here is the method: The products were administered orally in a single dose to male mice with an average weight of 22 g. The mortality was recorded after a 14-day observation period.
The results are expressed in the form of the 50% lethal dose (LD50), i.e. the theoretical dose in mg.kg^-1, administered orally, which causes the death of 50% of the animals.
The majority of the molecules have an LD50 of more than 1 g.kg^-1. These are therefore products with a low toxicity after a single administration.

The target in data set [3] is T1, postsynaptic alpha-adrenergic receptors (Rattus norvegicus, UniProt P43140).
T1 construct: causes contraction of the isolated vas deferens; from tissue; host or cells: isolated rat vas deferens
T1 sequence (P43140 1-466): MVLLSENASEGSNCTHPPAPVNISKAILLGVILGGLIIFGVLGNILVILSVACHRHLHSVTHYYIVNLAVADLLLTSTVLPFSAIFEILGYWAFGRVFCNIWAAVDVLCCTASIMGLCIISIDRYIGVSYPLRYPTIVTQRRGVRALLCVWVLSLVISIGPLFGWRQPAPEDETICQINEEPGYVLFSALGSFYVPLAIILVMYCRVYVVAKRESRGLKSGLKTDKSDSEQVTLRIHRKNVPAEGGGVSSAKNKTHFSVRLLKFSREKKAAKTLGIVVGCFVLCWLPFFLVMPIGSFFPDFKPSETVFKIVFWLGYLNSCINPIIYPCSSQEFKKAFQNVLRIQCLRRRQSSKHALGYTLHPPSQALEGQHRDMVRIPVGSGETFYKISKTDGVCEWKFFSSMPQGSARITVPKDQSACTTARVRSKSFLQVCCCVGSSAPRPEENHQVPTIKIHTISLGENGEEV
Nature of the data set: Alpha-blocking activity towards norepinephrine on isolated rat vas deferens. In kind it is biochemical. Conditions: -log of concentration requiring doubled norepinephrine, read-out: pA2 (converted). Here is the method: Stimulation of the postsynaptic alpha-adrenergic receptors by norepinephrine causes contraction of the isolated vas deferens.
The concentration of product in whose presence the norepinephrine concentration must be doubled in order to obtain the same effect as in the absence of said product is determined. The logarithm of this concentration, with the opposite sign, constitutes the pA2 of the products.
Their alpha-blocking activity is high since it appears for low concentrations of between 10^-6 M and 10^-8 M.

Data set [4] relates to hypertension induced by norepinephrine. As to the kind of experiment: Inhibitory activity towards hypertension induced by norepinephrine in anesthetized rabbits. Conditions: anesthetized male rabbits, intravenous; for ED50: Oryctolagus cuniculus, read-out: ID50 (50% inhibition of norepinephrine-induced hypertension). Type of data set: in vivo. Here is the method: The blood pressure is measured by catheterization of the left carotid artery of anesthetized male rabbits. An increase in blood pressure is induced by an intravenous injection of norepinephrine. This hypertension can be inhibited by the prior administration of molecules with an alpha-blocking potential.
These are presented in Table 6 in the form of the 50% inhibitory dose (ID50), which is defined as the dose of product which, when administered intravenously, causes a 50% inhibition of the hypertension induced by norepinephrine.

Data set [5] has as its system femoral blood pressure and heart rate. Nature of the data set: Cardiovascular activity (blood pressure and heart rate) in anesthetized rats. Type of data set: in vivo. Conditions: for Heart rate, maximum effect in % / ED25: I.V., pentobarbital-anesthetized rats; for ED25: Rattus norvegicus, iv, 25% drop in average blood pressure. Here is the method: The cardiovascular effects of three products were studied in rats anesthetized with pentobarbital and placed under artificial respiration. The femoral blood pressure and the heart rate are recorded by means of a GOULD-BRUSH apparatus.
The products are administered intravenously in increasing doses. Three animals are tested per product. The dose which causes a 25% drop in average blood pressure (ED25) was evaluated for each product and compared with nicardipine 1 to 5 min after administration.
The products have dose-dependent hypotensive effects but have little or no effect on the heart rate (Table 7). The most hypotensive in terms of the effective dose is B 1395 (ED25 of 0.004 mg.kg^-1).

Where [6] appears, read: 1 min, 1 minute, read-out: Blood pressure: Hypotension, ED25 at 1 minute.
[7] abbreviates: 5 min, 5 minutes, read-out: Blood pressure: Hypotension, ED25 at 5 minutes.

For the compound `Cc1ncsc1OCCN1CCN(c2ccccc2)CC1` [B 1216, 4-methyl-5-[2-(4-phenylpiperazin-1-yl)ethoxy]thiazole], the ED50 is 33 mg/kg in data set [1] and more than 3 mg/kg in data set [4]. The same compound yielded an LD50 at 336 h in data set [2] of more than 1000 mg/kg. Besides, in data set [3], the Kb is 89.1 nM.

As for `CCOc1ccccc1N1CCN(CCOc2scnc2C)CC1` [B 1258, 4-methyl-5-[2-(4-o-ethoxyphenylpiperazin-1-yl)ethoxy]thiazole], the “Heart rate, maximum effect in %” value in data set [5] is listed as -5.6%. For the same compound, the ED25 in data set [5] (setting [6]) was 0.8 mg/kg; in data set [5] (setting [7]), 1 mg/kg. Besides, the values for the ED50 in data set [1] and in data set [4] were 6.5 mg/kg and 5.6 mg/kg, respectively. The “adrenolytic activity in the whole animals” value (shortened to “adrenolytic activity”) in data set [1] is reported as “very active”. In data set [2], this compound registered an LD50 at 336 h of more than 1000 mg/kg. The Kb in data set [3] is 15.8 nM.

Take `Cc1ncsc1OCCN1CCN(c2ccccc2F)CC1` [B 1305, 4-methyl-5-[2-(4-o-fluorophenylpiperazin-1-yl)-ethoxy]thiazole]: the ED50 in data set [1] is 35 mg/kg; in data set [4] it was 3 mg/kg. The same compound returned an LD50 at 336 h in data set [2] of more than 1000 mg/kg. The Kb in data set [3] was 81.3 nM.

Regarding `CCCOc1ccccc1N1CCN(CCOc2scnc2C)CC1` [B 1342, 4-methyl-5-[2-(4-o-propoxyphenylpiperazin-1-yl)-ethoxy]thiazole], the ED50 in data set [1] was found to be 4 mg/kg; in data set [4], 7.3 mg/kg. This compound showed an LD50 at 336 h in data set [2] of more than 1000 mg/kg. For the same compound, the Kb in data set [3] is 16.2 nM.

With `CCOc1ccccc1N1CCN(CC(O)COc2scnc2C)CC1` (stereo not drawn) [B 1392, 3-(4-o-ethoxyphenylpiperazin-1-yl)-1-(4-methylthiazolyl-5-oxy)propan-2-ol], the “Heart rate, maximum effect in %” value in data set [5] is -11.2%. The ED25 was found to be 0.024 mg/kg in data set [5] (setting [6]) and 0.048 mg/kg in data set [5] (setting [7]). In addition, the ED50 in data set [1] was 0.3 mg/kg; in data set [4] it was 2.6 mg/kg. In addition, the “adrenolytic activity” value in data set [1] was “very active”. Moreover, the LD50 at 336 h in data set [2] is 260 mg/kg. For the same compound, in data set [3], the Kb was 13.2 nM.

As for `CCCOc1ccccc1N1CCN(CC(O)COc2scnc2C)CC1` (stereo not drawn) [B 1395, 3-(4-o-propoxyphenylpiperazin-1-yl)-1-(4-methylthiazolyl-5-oxy)propan-2-olmonohydrochloride], in data set [5] (ED25 values 5 min after I.V. injection, in words), the “hypotensive potential compared with nicardipine” value is on record as “on a level with that of nicardipine”. The “Heart rate, maximum effect in %” value in data set [5] was -4%. For the same compound, the results for the ED25 in data set [5] (setting [6]) and in data set [5] (setting [7]) were 0.004 mg/kg and 0.1 mg/kg, respectively. The ED50 in data set [1] and in data set [4] was 0.2 mg/kg throughout. Moreover, in data set [1], the “adrenolytic activity” value is given as “very active”. The LD50 at 336 h in data set [2] came to 515 mg/kg. The Kb in data set [3] was 20 nM. Also, in data set [4], the active dose entry is listed as “less than 1 mg.kg^-1”. In addition, in data set [4] (in words), the “effectiveness against norepinephrine-induced hypertension” value was “particularly effective”.
